25 compounds from patent US10385019B2, “Inhibitors of EGFR and methods of use thereof” (Dana-Farber Cancer Institute, Inc., priority 2015, dated 2019) can be followed below.

The target in the assay is EGFR T790M/L858R Ba/F3 cell line (Homo sapiens, UniProt P00533, T790M/L858R, cells depend on it). Briefly: Ba/F3 cell proliferation model. The format is cell-based, murine. Conditions: combined with cetuximab (% cetuximab, 1.0 μM drug concentration with 1.0 μg/mL cetuximab). The text has this: The selectivity between wild-type EGFR and EGFR containing one or more mutations as described herein can also be measured using cellular proliferation assays where cell proliferation is dependent on kinase activity. For example, murine Ba/F3 cells transfected with a suitable version of wild-type EGFR (such as VIII; containing a WT EGFR kinase domain), or Ba/F3 cells transfected with L858R/T790M, Del/T790M/L718Q, L858R/T790M/L718Q, L858R/T790M/C797S, Del/T790M/C797S, L858R/T790M/I941R, or Exon 19 deletion/T790M can be used.
Sequence of EGFR T790M/L858R Ba/F3 cell line (P00533 whole entry T790M/L858R, the tested form may be a part): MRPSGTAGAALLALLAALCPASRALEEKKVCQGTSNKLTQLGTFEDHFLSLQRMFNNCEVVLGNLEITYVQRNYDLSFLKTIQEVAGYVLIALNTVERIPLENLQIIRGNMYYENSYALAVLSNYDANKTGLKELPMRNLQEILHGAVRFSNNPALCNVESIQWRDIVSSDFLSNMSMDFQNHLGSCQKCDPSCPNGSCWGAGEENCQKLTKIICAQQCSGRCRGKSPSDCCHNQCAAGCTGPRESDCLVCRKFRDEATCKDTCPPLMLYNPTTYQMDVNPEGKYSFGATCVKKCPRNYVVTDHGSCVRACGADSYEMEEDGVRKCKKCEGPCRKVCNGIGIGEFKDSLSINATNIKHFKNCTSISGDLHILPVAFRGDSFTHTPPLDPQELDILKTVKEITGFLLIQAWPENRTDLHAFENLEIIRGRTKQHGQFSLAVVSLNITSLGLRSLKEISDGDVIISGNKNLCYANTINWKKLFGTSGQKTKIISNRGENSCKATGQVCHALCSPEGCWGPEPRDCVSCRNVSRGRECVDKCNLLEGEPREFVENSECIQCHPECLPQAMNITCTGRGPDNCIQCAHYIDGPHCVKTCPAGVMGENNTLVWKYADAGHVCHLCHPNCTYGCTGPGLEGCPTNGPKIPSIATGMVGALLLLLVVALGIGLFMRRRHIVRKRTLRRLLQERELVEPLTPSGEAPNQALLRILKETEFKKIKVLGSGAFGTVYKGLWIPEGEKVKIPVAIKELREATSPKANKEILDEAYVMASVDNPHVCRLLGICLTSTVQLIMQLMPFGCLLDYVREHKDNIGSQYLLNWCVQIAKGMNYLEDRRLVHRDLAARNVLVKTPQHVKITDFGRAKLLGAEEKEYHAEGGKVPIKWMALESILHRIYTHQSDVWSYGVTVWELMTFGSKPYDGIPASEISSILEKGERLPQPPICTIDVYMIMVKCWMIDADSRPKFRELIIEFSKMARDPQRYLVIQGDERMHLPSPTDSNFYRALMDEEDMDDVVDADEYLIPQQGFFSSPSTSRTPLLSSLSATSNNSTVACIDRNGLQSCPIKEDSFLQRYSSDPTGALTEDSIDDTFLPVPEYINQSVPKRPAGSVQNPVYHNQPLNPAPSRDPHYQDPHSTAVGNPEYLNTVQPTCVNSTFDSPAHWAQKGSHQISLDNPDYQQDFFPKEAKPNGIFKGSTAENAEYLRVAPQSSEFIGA
Cell lines are plated in media. The compounds of the present disclosure are then serially diluted and transferred to the cells. Cell viability is measured via a luminescent readout. Data is analyzed by non-linear regression curve-fitting. […]
The EGFR mutant L858R, Del E746_A750, L858R/T790M, DelE746_A750/T790M, L858R/T790M/C797S and Del/T790M/C797S Ba/F3 cells have been previously described (Zhou, W., Ercan, D., Chen, L., Yun, C. H., Li, D., Capelletti, M., Cortot, A. B., Chirieac, L., Iacob, R. E., Padera, R., et al. “Novel mutant-selective EGFR kinase inhibitors against EGFR T790M,” Nature 462, (2009), 1070-1074). All cell lines were maintained in RPMI 1640 (Cellgro; Mediatech Inc., Herndon, Calif.) supplemented with 10% FBS 100 units/mL penicillin, 100 units/mL streptomycin, and 2 mM glutamine. L858R cells were maintained in ACL-4 media (Invitrogen, Carlsbad, Calif.) supplemented with 5% FBS, 100 units/mL penicillin, 100 units/mL streptomycin, and 2 mM glutamine. The EGFR I941R mutation was introduced via site directed mutagenesis using the Quick Change Site-Directed Mutagenesis kit (Stratagene; La Jolla, Calif.) according to the manufacturer's instructions. All constructs were confirmed by DNA sequencing. The constructs were shuttled into the retroviral vector JP 1540 using the BD Creator™ System (BD Biosciences). Ba/F3 cells were infected with retrovirus and according to standard protocols, as described previously (Zhou et al, Nature 2009). Stable clones were obtained by selection in puromycin (2 μg/ml).
Growth and inhibition of growth was assessed by MTS assay and was performed according to previously established methods (Zhou et al., Nature 2009). The MTS assay is a colorimetric method for determining the number of viable cells that is based on the bioreduction of MTS by cells to a formazan product that is soluble in cell culture medium and can be detected spectrophotometrically. Ba/F3 cells of different EGFR genotypes were exposed to treatment for 72 hours and the number of cells used per experiment determined empirically and has been previously established (Zhou et al., Nature 2009). All experimental points were set up in six wells and all experiments were repeated at least three times. […] The curves were fitted using a non-linear regression model with a sigmoidal dose response.
Inhibition data of an EGFR T790M/L858R Ba/F3 cell line.
Turning to `O=C(Nc1nccs1)[C@@H](c1ccccc1)N1Cc2cc(Nc3cccc(F)c3)ccc2C1=O` [Compound I-97, (R)-2-(5-((3-fluorophenyl)amino)-1-oxoisoindolin-2-yl)-2-phenyl-N-(thiazol-2-yl)acetamide], the “Activity (% inhibition)” value was “A (a % inhibition of about 75%)”.
For the compound `O=C(Nc1cc(Br)ccn1)[C@@H](c1ccccc1)N1Cc2ccccc2C1=O` [Compound I-28, (R)-N-(4-bromopyridin-2-yl)-2-(1-oxoisoindolin-2-yl)-2-phenylacetamide], the “Activity (% inhibition)” value is on record as “A (a % inhibition of about 75%)”.
As to `O=C(Nc1cc(F)ccc1F)[C@@H](c1ccccc1)N1Cc2ccccc2C1=O` [Compound I-53, (R)-N-(2,5-difluorophenyl)-2-(1-oxoisoindolin-2-yl)-2-phenylacetamide], the “Activity (% inhibition)” value is given as “A (a % inhibition of about 75%)”.
Regarding `O=C(NCc1ccccc1)[C@@H](c1ccccc1)N1Cc2ccccc2C1=O` [Compound I-87, (R)-N-benzyl-2-(1-oxoisoindolin-2-yl)-2-phenylacetamide], the “Activity (% inhibition)” value was “A (a % inhibition of about 75%)”.
Regarding `COC(=O)c1ccc(-c2ccc3c(c2)C(=O)N([C@@H](C(=O)Nc2nccs2)c2ccccc2)C3)cc1` [Compound I-72, methyl (R)-4-(3-oxo-2-(2-oxo-1-phenyl-2-(thiazol-2-ylamino)ethyl)isoindolin-5-yl)benzoate], the “Activity (% inhibition)” value is given as “B (a % inhibition of between about 50% to about 75%)”.
Take `O=C(Nc1ncco1)[C@@H](c1ccccc1)N1Cc2ccccc2C1=O` [Compound I-19, (R)-N-(oxazol-2-yl)-2-(1-oxoisoindolin-2-yl)-2-phenylacetamide]: the “Activity (% inhibition)” value was “A (a % inhibition of about 75%)”.
As to `O=C(Nc1nccs1)[C@@H](c1ccccc1)N1Cc2ccc(Nc3cccc(CN4CCCC4)c3)cc2C1=O` [Compound I-100, (R)-2-(1-oxo-6-((3-(pyrrolidin-1-ylmethyl)phenyl)amino)isoindolin-2-yl)-2-phenyl-N-(thiazol-2-yl)acetamide], the “Activity (% inhibition)” value was “D (a % inhibition of between about 0% to about 25%)”.
As for `O=C(Nc1nccs1)[C@@H](c1ccccc1)N1Cc2ccc(-c3ccc(C(=O)N4CCOCC4)cc3)cc2C1=O` [Compound I-85, (R)-2-(6-(4-(morpholine-4-carbonyl)phenyl)-1-oxoisoindolin-2-yl)-2-phenyl-N-(thiazol-2-yl)acetamide], the “Activity (% inhibition)” value is recorded as “D (a % inhibition of between about 0% to about 25%)”.
As for `O=C(Nc1nccs1)[C@@H](c1ccccc1)N1Cc2ccc(-c3cccc4cccnc34)cc2C1=O` [Compound I-71, (R)-2-(1-oxo-6-(quinolin-8-yl)isoindolin-2-yl)-2-phenyl-N-(thiazol-2-yl)acetamide], the “Activity (% inhibition)” value was “C (a % inhibition of between about 25% to about 50%)”.
The same measure for `O=C(Nc1cc(C2CC2)n[nH]1)[C@@H](c1ccccc1)N1Cc2ccccc2C1=O` [Compound I-26, (R)-N-(3-cyclopropyl-1H-pyrazol-5-yl)-2-(1-oxoisoindolin-2-yl)-2-phenylacetamide]: “A (a % inhibition of about 75%)”; for `O=C(Nc1nccs1)[C@@H](c1ccccc1)N1Cc2ccc(Nc3ccccc3)cc2C1=O` [Compound I-98, (R)-2-(1-oxo-6-(phenylamino)isoindolin-2-yl)-2-phenyl-N-(thiazol-2-yl)acetamide]: “C (a % inhibition of between about 25% to about 50%)”.
Then `O=C(Nc1ncc(Br)s1)[C@H](Cc1ccccc1)N1Cc2ccccc2C1=O` [Compound I-49, (S)-N-(5-bromothiazol-2-yl)-2-(1-oxoisoindolin-2-yl)-3-phenylpropanamide], with “A (a % inhibition of about 75%)”.
For `O=C(Nc1ncco1)[C@H](c1ccccc1)N1Cc2ccccc2C1=O` [Compound I-20, (S)-N-(oxazol-2-yl)-2-(1-oxoisoindolin-2-yl)-2-phenylacetamide], the “Activity (% inhibition)” value is “A (a % inhibition of about 75%)”.
Regarding `O=C(Nc1nccs1)[C@@H](c1ccccc1)N1Cc2cc(-c3ccc4[nH]ccc4c3)ccc2C1=O` [Compound I-104, (R)-2-(5-(1H-indol-5-yl)-1-oxoisoindolin-2-yl)-2-phenyl-N-(thiazol-2-yl)acetamide], the “Activity (% inhibition)” value is “C (a % inhibition of between about 25% to about 50%)”.
The same measure for `CCOC(=O)c1csc(NC(=O)[C@@H](c2ccccc2)N2Cc3ccccc3C2=O)n1` [Compound I-4, ethyl (R)-2-(2-(1-oxoisoindolin-2-yl)-2-phenylacetamido) thiazole-4-carboxylate]: “A (a % inhibition of about 75%)”; for `CN1CCN(C(=O)c2csc(NC(=O)[C@@H](c3ccccc3)N3Cc4ccccc4C3=O)n2)CC1` [Compound I-25, (R)-N-(4-(4-methylpiperazine-1-carbonyl)thiazol-2-yl)-2-(1-oxoisoindolin-2-yl)-2-phenylacetamide]: “A (a % inhibition of about 75%)”; for `CN(C)CCCNC(=O)c1csc(NC(=O)[C@@H](c2ccccc2)N2Cc3ccccc3C2=O)n1` [Compound I-11, (R)-N-(3-(dimethylamino)propyl)-2-(2-(1-oxoisoindolin-2-yl)-2-phenylacetamido)thiazole-4-carboxamide]: “A (a % inhibition of about 75%)”.
With `O=C(Nc1ncc(CCCN2CCOCC2)s1)[C@@H](c1ccccc1)N1Cc2ccccc2C1=O` [Compound I-44, (R)-N-(5-(3-morpholinopropyl)thiazol-2-yl)-2-(1-oxoisoindolin-2-yl)-2-phenylacetamide], the “Activity (% inhibition)” value is “A (a % inhibition of about 75%)”.
`O=C(Nc1nccs1)[C@@H](c1cccc([N+](=O)[O-])c1)N1Cc2ccccc2C1=O` [Compound I-18, (R)-2-(3-nitrophenyl)-2-(1-oxoisoindolin-2-yl)-N-(thiazol-2-yl)acetamide]: the “Activity (% inhibition)” value is listed as “A (a % inhibition of about 75%)”.
For the compound `CN1CCN(c2ccc(-c3ccc4c(c3)CN([C@@H](C(=O)Nc3nccs3)c3ccccc3)C4=O)cc2)CC1` [Compound I-102, (R)-2-(5-(4-(4-methylpiperazin-1-yl)phenyl)-1-oxoisoindolin-2-yl)-2-phenyl-N-(thiazol-2-yl)acetamide], the “Activity (% inhibition)” value is given as “B (a % inhibition of between about 50% to about 75%)”.
As to `O=C(Nc1nccs1)[C@@H](c1ccccc1)N1Cc2ccc(-c3ccccn3)cc2C1=O` [Compound I-108, (R)-2-(1-oxo-6-(pyridin-2-yl)isoindolin-2-yl)-2-phenyl-N-(thiazol-2-yl)acetamide], the “Activity (% inhibition)” value is recorded as “C (a % inhibition of between about 25% to about 50%)”.
Regarding `CN(C)CCNC(=O)c1csc(NC(=O)[C@@H](c2ccccc2)N2Cc3ccccc3C2=O)n1` [Compound I-16, (R)-N-(2-(dimethylamino)ethyl)-2-(2-(1-oxoisoindolin-2-yl)-2-phenylacetamido)thiazole-4-carboxamide], the “Activity (% inhibition)” value is on record as “A (a % inhibition of about 75%)”.
`C[C@H](NC(=O)[C@H](c1ccccc1)N1Cc2ccccc2C1=O)c1ccccc1` [Compound I-2, (S)-2-(1-oxoisoindolin-2-yl)-2-phenyl-N-((S)-1-phenylethyl)acetamide]: the “Activity (% inhibition)” value is “A (a % inhibition of about 75%)”.
The same measure for `N#Cc1ccc(-c2ccc3c(c2)C(=O)N([C@H](C(=O)Nc2nccs2)c2ccccc2)C3)cc1F` [Compound I-114, (S)-2-(6-(4-cyano-3-fluorophenyl)-1-oxoisoindolin-2-yl)-2-phenyl-N-(thiazol-2-yl)acetamide]: “B (a % inhibition of between about 50% to about 75%)”.
For the compound `CN(C)CCCCNC(=O)c1csc(NC(=O)[C@@H](c2ccccc2)N2Cc3ccccc3C2=O)n1` [Compound I-15, (R)-N-(4-(dimethylamino)butyl)-2-(2-(1-oxoisoindolin-2-yl)-2-phenylacetamido)thiazole-4-carboxamide], the “Activity (% inhibition)” value was “A (a % inhibition of about 75%)”.
